The source of these data is patent US20060100226A1, “2-Thiopyrimidinones as therapeutic agents” (priority 2004, published 2006).

Where only a bound is given, the exact number is not on record here.

In general, IC50 refers to the concentration that gives 50% inhibition. A lower IC50 goes with inhibition by little substance.

This test addresses T1, murine MEKK2 (mMEKK2) (Mus musculus, UniProt Q61083).
T1 sequence (Q61083 1-619): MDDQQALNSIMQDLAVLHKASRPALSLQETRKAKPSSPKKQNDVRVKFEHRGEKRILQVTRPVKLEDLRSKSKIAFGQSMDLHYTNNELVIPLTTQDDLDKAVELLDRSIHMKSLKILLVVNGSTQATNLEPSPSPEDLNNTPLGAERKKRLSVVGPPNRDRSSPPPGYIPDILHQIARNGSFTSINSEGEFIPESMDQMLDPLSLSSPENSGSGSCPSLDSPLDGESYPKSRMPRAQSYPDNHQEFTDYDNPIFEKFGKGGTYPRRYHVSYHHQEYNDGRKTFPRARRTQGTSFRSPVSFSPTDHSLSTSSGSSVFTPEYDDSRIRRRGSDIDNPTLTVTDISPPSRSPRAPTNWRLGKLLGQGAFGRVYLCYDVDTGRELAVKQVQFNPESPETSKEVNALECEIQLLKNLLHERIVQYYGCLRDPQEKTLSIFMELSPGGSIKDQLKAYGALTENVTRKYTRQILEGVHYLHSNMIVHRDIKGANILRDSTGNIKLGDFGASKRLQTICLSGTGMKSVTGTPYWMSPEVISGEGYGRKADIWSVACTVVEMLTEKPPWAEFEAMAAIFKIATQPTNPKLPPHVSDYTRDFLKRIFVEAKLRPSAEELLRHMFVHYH
The experiment in a line: TR-FRET kinase assay (mMEKK2/MBP). It counts as biochemical. The following applies: substrate biotin MBP, 60 minutes at room temperature. On the procedure:
In one approach, MEKK2 inhibitory activity of compounds of the invention can be assessed using the time-resolved Fluorescence Resonance Energy Transfer (TR-FRET) assay detailed in Example 5. In this assay, the excitation energy of one fluorescent molecule (the donor) is transferred by a resonance mechanism to a nearby second fluorescent molecule (the acceptor), which then releases its fluorescent energy through fluorescent emission. This fluorescent energy is measured using a time-resolved fluorescence measurement protocol (LANCE high count 615/665); excitation occurred with 1,000 flashes at 325 nm, measurement was delayed by 100 μs, and data were acquired for 50 μs at 615 and 665 nm.
A TR-FRET kinase assay was used to screen potential inhibitors of MEKK2. The assay was performed as follows: Compounds to be tested were weighed and solubilized in DMSO (Sigma) to a stock concentration of 10 mM. Serial dilutions starting from 1 mM were prepared with additional DMSO. These dilutions were further diluted to 250 μM in kinase reaction buffer [20 mM Hepes pH 7.5, 5 mM MgCl2, 1 mM DTT (Dithiothreitol-Sigma), 1 mM NaVO4 (sodium vanadate-Sigma). A 25 μl aliquot of this solution was transferred to a black 96-well nonbinding surface microplate (Fisher). A stock aliquot containing […] of murine MEKK2 (mMEKK2) was diluted in the kinase reaction buffer and incubated with the compounds on the microplate for 10 minutes. A 25 μl aliquot of a 138 ng solution of biotin MBP (myelin basic protein—Upstate Biotechnology) was added to the reaction followed by 25 ul of a 25 ng solution of anti-phospho MBP antibody (Upstate Biotechnology) diluted in kinase reaction buffer. Finally an aliquot (50 μl) of a 5 uM solution of ATP (adenosine triphosphate) was added and the reaction was allowed to proceed for 60 minutes at room temperature. The reaction was stopped by the addition of 50 μL of a 12.5 ng solution of europium labeled anti-mouse IgG (Perkin Elmer) and 45 ng of Cy5 labeled streptavidin (Jackson Immunoresearch) in termination buffer (20 mM Hepes pH 7.5, 100 mM EDTA; Sigma). The assay was allowed to equilibrate for 45 minutes before placing the plate on the Victor™ plate reader. The plate was read using the 615/665 LANCE protocol.
For the compound `COc1cccc(-c2nc(SCc3cccc(NC(=O)c4cc5ccccc5s4)c3)[nH]c(=O)c2C#N)c1` [Example 2m], the half-inhibitory concentration (IC50) is below 5 µM.
Under `COc1cccc(-c2nc(SCc3ccc(NC(=O)Nc4cc(F)cc5c4OCOC5)cc3)[nH]c(=O)c2C#N)c1` [Example 3r] stands below 5 µM.
Under `COc1cccc(-c2nc(SCc3cccc(NC(=O)CCc4ccccc4)c3)[nH]c(=O)c2C#N)c1` [Example 2e] stands below 5 µM; under `COc1cccc(-c2nc(SCc3cccc(NCc4ccc5nsnc5c4)c3)[nH]c(=O)c2C#N)c1` [Example 1y], below 10 µM; under `COc1cccc(-c2nc(SCc3cccc(NC(=O)c4ccccc4)c3)[nH]c(=O)c2C#N)c1` [Example 2c], below 5 µM.
Under `COc1cccc(-c2nc(SCc3cccc(NC(=O)Cc4ccccc4)c3)[nH]c(=O)c2C#N)c1` [Example 2k] stands below 10 µM.
Compound `COc1cccc(-c2nc(SCc3cccc(NCc4ccc(N(C)C)c(C#N)c4F)c3)[nH]c(=O)c2C#N)c1` [Example 1t] yielded a half-maximal inhibitory concentration (IC50) below 5 µM.
Under `COc1cccc(-c2nc(SCc3ccc(NC(=O)c4cccnc4Oc4ccc(Cl)cc4)cc3)[nH]c(=O)c2C#N)c1` [Example 2zz] stands above 40 µM; under `COc1cccc(-c2nc(SCc3ccc(NC(=O)Nc4cccc(C#N)c4)cc3)[nH]c(=O)c2C#N)c1` [Example 3o], below 20 µM.
Under `COc1cccc(-c2nc(SCc3ccc(NC(=O)c4cnn(-c5ccccc5)c4C(F)(F)F)cc3)[nH]c(=O)c2C#N)c1` [Example 2fff] stands below 5 µM; under `COc1cccc(-c2nc(SCc3ccc(NC(=O)c4ccc(Cl)c(Cl)c4)cc3)[nH]c(=O)c2C#N)c1` [Example 2tt], below 1 µM; under `COc1cccc(-c2nc(SCc3cccc(NCc4cccc(Oc5ccccc5)c4)c3)[nH]c(=O)c2C#N)c1` [Example 1bb], below 1 µM.
On to `N#Cc1c(-c2cccc(C(=O)O)c2)nc(SCCCn2cnc3c(NCc4ccccc4)ncnc32)[nH]c1=O` [Example 4j], for which the IC50 was above 40 µM.
Under `N#Cc1c(-c2cccc(Cn3cncn3)c2)nc(SCc2cccc(NC(=O)c3ccc(Cl)c(Cl)c3)c2)[nH]c1=O` [Example 4bb] stands above 40 µM; under `COc1cccc(-c2nc(SCc3ccc(NC(=O)NC(c4ccccc4)c4ccccc4)cc3)[nH]c(=O)c2C#N)c1` [Example 3z], below 1 µM; under `COc1cccc(-c2nc(SCc3ccc(NC(=O)c4cccc(C(F)(F)F)c4)cc3)[nH]c(=O)c2C#N)c1` [Example 2ss], below 5 µM.
Under `COc1cccc(-c2nc(SCc3ccc(NC(=O)c4sccc4Cl)cc3)[nH]c(=O)c2C#N)c1` [Example 2aaa] stands below 5 µM; under `COc1cccc(-c2nc(SCc3cccc(NCc4ccccc4N4CCOCC4)c3)[nH]c(=O)c2C#N)c1` [Example 1h], below 5 µM.
Under `COc1cccc(-c2nc(SCc3ccc(NC(=O)c4c(F)cc(F)cc4F)cc3)[nH]c(=O)c2C#N)c1` [Example 2ww] stands below 20 µM.
The compound `COc1cccc(-c2nc(SCc3ccc(NC(=O)c4snnc4C)cc3)[nH]c(=O)c2C#N)c1` [Example 2hhh] returned an IC50 below 40 µM.
Under `COc1cccc(-c2nc(SCc3cccc(NC(=O)c4cc(C)on4)c3)[nH]c(=O)c2C#N)c1` [Example 2r] stands below 20 µM; under `COc1cccc(-c2nc(SCc3cccc(NCc4cnc(N(C)C)nc4)c3)[nH]c(=O)c2C#N)c1` [Example 1z], below 40 µM.
Under `COc1cccc(-c2nc(SCc3ccc(NC(=O)Nc4ccccc4)cc3)[nH]c(=O)c2C#N)c1` [Example 3m] stands below 5 µM; under `COc1cccc(-c2nc(SCc3cccc(NCc4ccc(-n5ccnc5)cc4)c3)[nH]c(=O)c2C#N)c1` [Example 1r], below 20 µM.
The compound `COc1cccc(-c2nc(SCc3cccc(NC(=O)c4cc(C(C)(C)C)nn4C)c3)[nH]c(=O)c2C#N)c1` [Example 2q] returned a concentration for half-maximal inhibition (IC50) below 5 µM.
`COc1cccc(-c2nc(SCc3ccc(NC(=O)Nc4ccc5c(c4)OCO5)cc3)[nH]c(=O)c2C#N)c1` [Example 3p]: the IC50 was below 20 µM.
Compound `COc1cccc(-c2nc(SCc3cccc(NCc4coc5cc(C)cc(C)c5c4=O)c3)[nH]c(=O)c2C#N)c1` [Example 1f] yielded an IC50 below 5 µM.
Under `COc1cccc(-c2nc(SCc3cccc(NCc4ccc(-c5cccs5)s4)c3)[nH]c(=O)c2C#N)c1` [Example 1aa] stands below 1 µM.
Under `COc1cccc(-c2nc(SCc3ccc(NC(=O)c4cc(C)nn4C(C)(C)C)cc3)[nH]c(=O)c2C#N)c1` [Example 2uu] stands below 20 µM; under `COc1cccc(-c2nc(SCc3cccc(NCc4cccc(Oc5cccc(C(F)(F)F)c5)c4)c3)[nH]c(=O)c2C#N)c1` [Example 1dd], below 1 µM.
Under `COc1cccc(-c2nc(SCc3cc(NCc4ccc(Cl)c(Cl)c4)ccc3O)[nH]c(=O)c2C#N)c1` [Example 4f] stands below 5 µM; under `N#Cc1c(-c2cccc(Cn3ccnc3)c2)nc(SCc2cccc(NC(=O)c3ccc(Cl)c(Cl)c3)c2)[nH]c1=O` [Example 4cc], above 40 µM.
Turning to `COc1cccc(-c2nc(SCc3ccc(NC(=O)c4ccc(OC(F)(F)F)cc4)cc3)[nH]c(=O)c2C#N)c1` [Example 2qq], the 50% inhibitory concentration (IC50) was below 5 µM.
Under `COc1cccc(-c2nc(SCc3cccc(NCc4ccc(Oc5cnccn5)cc4)c3)[nH]c(=O)c2C#N)c1` [Example 1m] stands below 20 µM.
In turn, `N#Cc1c(-c2cccc(NCC[C@@H](O)[C@@H](O)CO)c2)nc(SCc2cccc(NC(=O)c3ccc(Cl)c(Cl)c3)c2)[nH]c1=O` [Example 4y] came in with a 50% inhibitory concentration (IC50) below 5 µM.
For `COc1cccc(-c2nc(SCc3ccc(NC(=O)c4cccc(OC(F)(F)F)c4)cc3)[nH]c(=O)c2C#N)c1` [Example 2ddd], the half-maximal inhibitory concentration (IC50) was below 5 µM.
Under `COc1cccc(-c2nc(SCc3ccc(NC(=O)c4cc(C(F)(F)F)cc(C(F)(F)F)c4)cc3)[nH]c(=O)c2C#N)c1` [Example 2kkk] stands below 5 µM; under `COc1cccc(-c2nc(SCc3cccc(NC(=O)NCCc4cccs4)c3)[nH]c(=O)c2C#N)c1` [Example 3e], below 5 µM.
Under `COc1cccc(-c2nc(SCc3ccc(NC(=O)C4=Cc5cc(Cl)ccc5OC4)cc3)[nH]c(=O)c2C#N)c1` [Example 2iii] stands below 5 µM; under `COc1cccc(-c2nc(SCc3cccc(NC(=O)NCc4ccco4)c3)[nH]c(=O)c2C#N)c1` [Example 3g], below 10 µM.
Compound `COc1cccc(-c2nc(SCc3cccc(NC(=O)c4ccc5ccccc5c4)c3)[nH]c(=O)c2C#N)c1` [Example 2d] showed an IC50 below 5 µM.
Under `COc1cccc(-c2nc(SCc3cccc(NCc4ccc(OCCN(C)c5ccncc5)cc4)c3)[nH]c(=O)c2C#N)c1` [Example 4b] stands above 40 µM; under `COc1cccc(-c2nc(SCc3ccccc3NC(=O)c3ccccc3)[nH]c(=O)c2C#N)c1` [Example 2nnn], below 40 µM; under `COc1cc(CNc2cccc(CSc3nc(-c4cccc(OC)c4)c(C#N)c(=O)[nH]3)c2)cc(OC)c1` [Example 1e], below 20 µM.
Under `COc1cccc(-c2nc(SCc3cccc(NC(=O)c4cc(Cl)cc(Cl)c4)c3)[nH]c(=O)c2C#N)c1` [Example 2p] stands below 5 µM; under `COc1cccc(-c2nc(SCc3ccc(NC(=O)C4CCN(C(C)=O)CC4)cc3)[nH]c(=O)c2C#N)c1` [Example 2jjj], below 20 µM; under `COc1cccc(-c2nc(SCc3ccc(NC(=O)Nc4ccc(Cl)c(C(F)(F)F)c4)cc3)[nH]c(=O)c2C#N)c1` [Example 3s], below 5 µM.
Under `N#Cc1c(-c2cccc(F)c2)nc(SCc2cccc(NC(=O)c3ccc(Cl)c(Cl)c3)c2)[nH]c1=O` [Example 4o] stands below 5 µM.
`COc1cccc(-c2nc(SCc3ccc(NC(=O)Nc4cc(C(F)(F)F)cc(C(F)(F)F)c4)cc3)[nH]c(=O)c2C#N)c1` [Example 3x] gave a concentration for half-maximal inhibition (IC50) below 1 µM.
